Results from patent publication US20140315876A1, “BETA-LACTAMASE INHIBITORS” (priority 2013, published 2014).
Where a name gives a salt, the structure may show the parent alone.

Experiments:
[1] = test system: bacterial strains that express the class D cephalosporinase OXA-15; experiment: Synergy MIC / standard BLI potentiation MIC assay, strains expressing OXA-15; type: cell-based, E. coli; conditions: in the presence of a β-lactam; comparator Avibactam (comparator compound CCC)
In short: (§1)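 Broth microdilution in CAMHB per CLSI, ~10^5 CFU/mL, 18-20 h at 37° C; MIC is lowest concentration with no visible turbidity. Potentiation: β-lactam 128-0.13 μg/mL with BLI fixed at 4 μg/mL. Synergy: BLI serially diluted with β-lactam fixed. Engineered E. coli kept on 25 μg/mL tetracycline.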

[2] = test system: bacterial strains that express KPC β-lactamases; experiment: Synergy MIC / standard BLI potentiation MIC assay, strains expressing KPC β-lactamases; type: cell-based; conditions: more active for at least one KPC strain and/or better spectrum of activity than Avibactam; in the presence of a β-lactam
In short: as §1

SMILES | activity against bacterial strains that express the class D cephalosporinase OXA-15, compared with Avibactam [1] | activity and/or spectrum of activity against bacterial strains that express KPC β-lactamases, compared with Avibactam [2]
O=C1N2C[C@@H](CC[C@H]2c2nnc([C@H]3CCNC3)o2)N1OS(=O)(=O)O [Compound 758, (2S,5R)-7-oxo-2-(5-((S)-pyrrolidin-3-yl)-1,3,4-oxadiazol-2-yl)-1,6-diazabicyclo[3.2.1]octan-6-yl hydrogen sulfate] | more active than Avibactam | more active than Avibactam
N=C(N)NCCc1nnc([C@@H]2CC[C@@H]3CN2C(=O)N3OS(=O)(=O)O)s1 [Compound 794, (2S,5R)-2-(5-(2-guanidinoethyl)-1,3,4-thiadiazol-2-yl)-7-oxo-1,6-diazabicyclo[3.2.1]octan-6-yl hydrogen sulfate] | more active than Avibactam | more active than Avibactam
N=C(N)N[C@H]1C[C@@H](c2nnc([C@@H]3CC[C@@H]4CN3C(=O)N4OS(=O)(=O)O)o2)C1 [Compound 749, (2S,5R)-2-(5-((1s,3R)-3-guanidinocyclobutyl)-1,3,4-oxadiazol-2-yl)-7-oxo-1,6-diazabicyclo[3.2.1]octan-6-yl hydrogen sulfate] | more active than Avibactam | more active than Avibactam
N[C@H]1C[C@H](CCc2nnc([C@@H]3CC[C@@H]4CN3C(=O)N4OS(=O)(=O)O)o2)C1 [Compound 753, (2S,5R)-2-(5-(2-((1r,3R)-3-aminocyclobutyl)ethyl)-1,3,4-oxadiazol-2-yl)-7-oxo-1,6-diazabicyclo[3.2.1]octan-6-yl hydrogen sulfate] | more active than Avibactam | more active than Avibactam
O=C1N2C[C@@H](CC[C@H]2c2nnc(CCNCCO)o2)N1OS(=O)(=O)O [Compound 736, (2S,5R)-2-(5-(2-((2-hydroxyethyl)amino)ethyl)-1,3,4-oxadiazol-2-yl)-7-oxo-1,6-diazabicyclo[3.2.1]octan-6-yl hydrogen sulfate] | more active than Avibactam | more active than Avibactam
N=C(N)NC1(Cc2nnc([C@@H]3CC[C@@H]4CN3C(=O)N4OS(=O)(=O)O)o2)CC1 [Compound 739, (2S,5R)-2-(5-((1-guanidinocyclopropyl)methyl)-1,3,4-oxadiazol-2-yl)-7-oxo-1,6-diazabicyclo[3.2.1]octan-6-yl hydrogen sulfate] | more active than Avibactam | more active than Avibactam
N[C@H]1C[C@@H](c2nnc([C@@H]3CC[C@@H]4CN3C(=O)N4OS(=O)(=O)O)s2)C1 [Compound 795, (2S,5R)-2-(5-((1s,3R)-3-aminocyclobutyl)-1,3,4-thiadiazol-2-yl)-7-oxo-1,6-diazabicyclo[3.2.1]octan-6-yl hydrogen sulfate] | more active than Avibactam | more active than Avibactam
O=C1N2C[C@@H](CC[C@H]2c2nnc(CNC3CNC3)o2)N1OS(=O)(=O)O [Compound 726, (2S,5R)-2-(5-((azetidin-3-ylamino)methyl)-1,3,4-oxadiazol-2-yl)-7-oxo-1,6-diazabicyclo[3.2.1]octan-6-yl hydrogen sulfate] | more active than Avibactam | more active than Avibactam
N=C(N)NC[C@@H](O)c1nnc([C@@H]2CC[C@@H]3CN2C(=O)N3OS(=O)(=O)O)o1 [Compound 731, (2S,5R)-2-(5-((R)-2-guanidino-1-hydroxyethyl)-1,3,4-oxadiazol-2-yl)-7-oxo-1,6-diazabicyclo[3.2.1]octan-6-yl hydrogen sulfate] | more active than Avibactam | more active than Avibactam
NC1(Cc2nnc([C@@H]3CC[C@@H]4CN3C(=O)N4OS(=O)(=O)O)o2)CC1 [Compound 724, (2S,5R)-2-(5-((1-aminocyclopropyl)methyl)-1,3,4-oxadiazol-2-yl)-7-oxo-1,6-diazabicyclo[3.2.1]octan-6-yl hydrogen sulfate] | more active than Avibactam | more active than Avibactam
O=C1N2C[C@@H](CC[C@H]2c2nnc(CC3CCNC3)o2)N1OS(=O)(=O)O (stereo partly drawn) [Compound 764, (2S,5R)-7-oxo-2-(5-(pyrrolidin-3-ylmethyl)-1,3,4-oxadiazol-2-yl)-1,6-diazabicyclo[3.2.1]octan-6-yl hydrogen sulfate] | more active than Avibactam | more active than Avibactam
O=C1N2C[C@@H](CC[C@H]2c2nnc(CCNC3CCNCC3)o2)N1OS(=O)(=O)O [Compound 770, (2S,5R)-7-oxo-2-(5-(2-(piperidin-4-ylamino)ethyl)-1,3,4-oxadiazol-2-yl)-1,6-diazabicyclo[3.2.1]octan-6-yl hydrogen sulfate] | more active than Avibactam | more active than Avibactam
NC1CC(NCc2nnc([C@@H]3CC[C@@H]4CN3C(=O)N4OS(=O)(=O)O)o2)C1 (stereo partly drawn) [Compound 755, (2S,5R)-2-(5-(((3-aminocyclobutyl)amino)methyl)-1,3,4-oxadiazol-2-yl)-7-oxo-1,6-diazabicyclo[3.2.1]octan-6-yl hydrogen sulfate] | more active than Avibactam | more active than Avibactam
O=C1N2C[C@@H](CC[C@H]2c2nnc(CCCC3CNC3)o2)N1OS(=O)(=O)O [Compound 743, (2S,5R)-2-(5-(3-(azetidin-3-yl)propyl)-1,3,4-oxadiazol-2-yl)-7-oxo-1,6-diazabicyclo[3.2.1]octan-6-yl hydrogen sulfate] | more active than Avibactam | more active than Avibactam
N[C@H]1CN[C@H](c2nnc([C@@H]3CC[C@@H]4CN3C(=O)N4OS(=O)(=O)O)o2)C1 [Compound 762, (2S,5R)-2-(5-((2S,4R)-4-aminopyrrolidin-2-yl)-1,3,4-oxadiazol-2-yl)-7-oxo-1,6-diazabicyclo[3.2.1]octan-6-yl hydrogen sulfate] | more active than Avibactam | more active than Avibactam
N=C(N)N1CC(c2nnc([C@@H]3CC[C@@H]4CN3C(=O)N4OS(=O)(=O)O)o2)C1 [Compound 709, (2S,5R)-2-(5-(1-carbamimidoylazetidin-3-yl)-1,3,4-oxadiazol-2-yl)-7-oxo-1,6-diazabicyclo[3.2.1]octan-6-yl hydrogen sulfate] | more active than Avibactam | more active than Avibactam
CC(C)(N)Cc1nnc([C@@H]2CC[C@@H]3CN2C(=O)N3OS(=O)(=O)O)o1 [Compound 737, (2S,5R)-2-(5-(2-amino-2-methylpropyl)-1,3,4-oxadiazol-2-yl)-7-oxo-1,6-diazabicyclo[3.2.1]octan-6-yl hydrogen sulfate] | more active than Avibactam | more active than Avibactam
